Experimental data from ChEMBL document CHEMBL4033735, “A potent and selective natriuretic peptide receptor-3 blocker 11-mer peptide created by hybridization of musclin and atrial natriuretic peptide” (Bioorg Med Chem Lett, 2017).
The source made the active and inactive calls. The calls are words filed in the database; no cut-off is given here. Bridge positions count the residues as written; N and C are the ends. Square brackets hold non-standard residues; d marks the D form. Peptide text beside a SMILES is read from it. Cha = N[C@@H](CC1CCCCC1)C(=O)O

Columns and labels:
[1] = molecular target: T1, Atrial natriuretic peptide receptor 1 (Homo sapiens, UniProt P16066); experiment: Displacement of [125I]-human ANP from human NPR-1 incubated for 2 hrs by top count method
T1 sequence (P16066 whole entry): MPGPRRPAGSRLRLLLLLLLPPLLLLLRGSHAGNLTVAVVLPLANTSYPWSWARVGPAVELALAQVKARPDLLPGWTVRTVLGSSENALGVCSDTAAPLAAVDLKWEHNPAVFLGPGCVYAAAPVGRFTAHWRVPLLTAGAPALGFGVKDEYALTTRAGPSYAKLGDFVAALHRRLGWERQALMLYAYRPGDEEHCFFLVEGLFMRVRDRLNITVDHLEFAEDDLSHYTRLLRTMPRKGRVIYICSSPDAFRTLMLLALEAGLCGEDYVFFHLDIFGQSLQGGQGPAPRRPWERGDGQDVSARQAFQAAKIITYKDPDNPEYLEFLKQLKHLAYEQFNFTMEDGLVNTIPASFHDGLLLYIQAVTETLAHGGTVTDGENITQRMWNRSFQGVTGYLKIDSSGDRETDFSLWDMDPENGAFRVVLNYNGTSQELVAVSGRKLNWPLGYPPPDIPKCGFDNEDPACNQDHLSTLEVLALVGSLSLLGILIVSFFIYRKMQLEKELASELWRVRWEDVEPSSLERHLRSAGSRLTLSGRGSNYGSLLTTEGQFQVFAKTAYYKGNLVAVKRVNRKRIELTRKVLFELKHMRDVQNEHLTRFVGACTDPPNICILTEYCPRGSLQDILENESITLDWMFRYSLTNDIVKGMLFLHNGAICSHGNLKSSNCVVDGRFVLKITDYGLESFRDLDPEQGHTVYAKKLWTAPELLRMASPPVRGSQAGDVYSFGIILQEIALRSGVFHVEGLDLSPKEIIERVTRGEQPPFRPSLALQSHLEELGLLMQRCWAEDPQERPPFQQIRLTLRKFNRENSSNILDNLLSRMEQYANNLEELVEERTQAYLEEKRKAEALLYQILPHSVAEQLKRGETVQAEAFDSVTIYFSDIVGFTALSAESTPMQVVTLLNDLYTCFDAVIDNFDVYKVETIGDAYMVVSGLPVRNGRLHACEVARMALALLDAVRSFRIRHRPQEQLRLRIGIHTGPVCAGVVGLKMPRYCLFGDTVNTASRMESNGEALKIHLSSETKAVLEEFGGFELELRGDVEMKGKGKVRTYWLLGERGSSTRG

[2] = Stability in 10% C57BL/6J mouse serum/phosphate-buffered saline assessed as residual parent compound remaining at 1 mM after 60 mins at 37 degC by HPLC method; format: ADME, cell-free; conditions: 10% mouse serum in phosphate-buffered saline, read-out: Stability
[3] = molecular target: T2, Atrial natriuretic peptide receptor 3 (Homo sapiens, UniProt P17342); experiment: Displacement of [125I]-human ANP from His-tagged and Fc fragment containing human NPR-3 extracellular domain expressed in FreeStyle 293 cells incubated for 2 hrs by top count method; format: cell-based
T2 sequence (P17342 whole entry): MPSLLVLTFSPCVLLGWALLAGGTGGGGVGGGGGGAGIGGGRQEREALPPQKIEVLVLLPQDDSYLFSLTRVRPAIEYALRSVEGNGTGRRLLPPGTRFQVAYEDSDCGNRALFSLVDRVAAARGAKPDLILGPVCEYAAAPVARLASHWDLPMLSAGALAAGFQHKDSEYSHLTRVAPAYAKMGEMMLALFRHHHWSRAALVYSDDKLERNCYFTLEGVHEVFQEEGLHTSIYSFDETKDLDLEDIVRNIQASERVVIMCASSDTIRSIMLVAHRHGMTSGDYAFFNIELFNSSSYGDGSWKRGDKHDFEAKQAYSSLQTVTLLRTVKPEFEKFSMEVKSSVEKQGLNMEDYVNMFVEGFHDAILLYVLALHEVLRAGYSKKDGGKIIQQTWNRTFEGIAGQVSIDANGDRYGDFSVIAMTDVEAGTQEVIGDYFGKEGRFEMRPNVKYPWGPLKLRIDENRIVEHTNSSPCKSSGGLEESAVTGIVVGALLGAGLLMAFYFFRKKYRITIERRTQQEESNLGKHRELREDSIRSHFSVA

[4] = Stability in 10% C57BL/6J mouse serum/phosphate-buffered saline assessed as residual parent compound remaining at 1 mM after 30 mins at 37 degC by HPLC method; format: ADME, cell-free; conditions: 10% mouse serum in phosphate-buffered saline, read-out: Stability
[5] = Stability in C57BL/6J mouse serum assessed as residual parent compound remaining at 1 mM after 30 mins at 37 degC by HPLC method; format: ADME, cell-free; conditions: read-out: Stability
[6] = Stability in C57BL/6J mouse serum assessed as residual parent compound remaining at 1 mM after 60 mins at 37 degC by HPLC method; format: ADME, cell-free; conditions: read-out: Stability
[7] = molecular target: T3, Atrial natriuretic peptide receptor 3 (Mus musculus) (UniProt P70180); experiment: Activity at NPR-3 in C57BL/6J mouse primary adipocytes assessed as increase in mANP-stimulated cGMP production at 1 uM pre-incubated for 30 mins before mANP stimulation for 15 mins by enzyme immunoassay; format: cell-based
T3 sequence (whole entry): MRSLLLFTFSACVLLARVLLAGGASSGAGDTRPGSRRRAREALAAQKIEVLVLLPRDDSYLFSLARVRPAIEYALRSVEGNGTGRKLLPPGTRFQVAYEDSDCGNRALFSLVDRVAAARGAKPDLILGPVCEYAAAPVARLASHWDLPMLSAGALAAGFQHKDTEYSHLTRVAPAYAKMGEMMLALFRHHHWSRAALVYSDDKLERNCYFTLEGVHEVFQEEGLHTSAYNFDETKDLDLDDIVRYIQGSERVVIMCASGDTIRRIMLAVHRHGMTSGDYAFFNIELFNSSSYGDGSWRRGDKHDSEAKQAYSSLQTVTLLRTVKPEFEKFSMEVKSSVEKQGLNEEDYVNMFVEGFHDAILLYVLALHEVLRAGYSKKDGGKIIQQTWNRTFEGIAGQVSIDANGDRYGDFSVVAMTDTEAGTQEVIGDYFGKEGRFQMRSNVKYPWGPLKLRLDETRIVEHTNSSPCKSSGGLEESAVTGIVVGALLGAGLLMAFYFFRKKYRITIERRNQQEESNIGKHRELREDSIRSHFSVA

[8] = Stability in C57BL/6J mouse serum assessed as residual parent compound remaining at 1 mM after 2 hrs at 37 degC by HPLC method; format: ADME, cell-free; conditions: read-out: Stability
Mus musculus [9] = experiment: Increase in cGMP production C57BL/6J mouse blood at 1 umol/kg/day, sc administered via infusion from implanted osmotic pumps for 7 days by enzyme immunoassay; format: functional, organism-based
Mus musculus [10] = experiment: Increase in cGMP production C57BL/6J mouse blood at 1 umol/kg/day, sc administered via infusion from implanted osmotic pumps for 7 days and co-dosed with 1 umol/kg/day mANP by enzyme immunoassay; format: functional, organism-based
[11] = Drug level in mouse blood at 1000 nmol/kg/day dosed as continuous administration for 3 days; format: ADME, organism-based; conditions: whole blood, read-out: Drug uptake
[12] = Stability in C57BL/6J mouse serum assessed as residual parent compound remaining at 1 mM after 4 hrs at 37 degC by HPLC method; format: ADME, cell-free; conditions: read-out: Stability
[13] = Drug level in mouse blood at 300 nmol/kg/day dosed as continuous administration for 3 days; format: ADME, organism-based; conditions: whole blood, read-out: Drug uptake
Serum = experiment: Stability in C57BL/6J mouse serum at 1 mM up to 4 hrs at 37 degC by HPLC method; format: ADME, cell-free; conditions: 1000 µM

| SMILES | IC50 [1] | remaining at 1 h, 1000 µM [2] | IC50 [3] | remaining at 0.5 h, 1000 µM [4] | remaining at 0.5 h, 1000 µM [5] | remaining at 1 h, 1000 µM [6] | Activity [7] | remaining at 2 h, 1000 µM [8] | Activity (Mus musculus [9]) | Activity (Mus musculus [10]) | concentration at 72 h [11] | remaining at 4 h, 1000 µM [12] | concentration at 72 h [13] | Stability (Serum) |
| --- | --- | --- | --- | --- | --- | --- | --- | --- | --- | --- | --- | --- | --- | --- |
| CC[C@H](C)[C@@H]1NC(=O)[C@H](CCCNC(=N)N)NC(=O)[C@H](CC(=O)O)NC(=O)[C@H]([C@@H](C)CC)NC(=O)[C@H](CCCNC(=N)N)NC(=O)CNC(=O)CNC(=O)[C@H](Cc2ccccc2)NC(=O)[C@@H](NC(=O)[C@H](CO)NC(=O)[C@H](CO)NC(=O)[C@@H](N)CCCNC(=N)N)CSSC[C@@H](C(=O)O)NC(=O)[C@H](C)NC(=O)CNC1=O (H-RSSCFGGRIDRIGAC-OH; disulfide 4-15) | > 1000 nM | 2% | 0.51 nM | 4% |  |  |  |  |  |  |  |  |  |  |
| CC[C@H](C)[C@H](NC(=O)[C@H](CCCNC(=N)N)NC(=O)[C@H](CC(=O)O)NC(=O)[C@@H](NC(=O)[C@H](CCCNC(=N)N)NC(=O)CNC(=O)CNC(=O)[C@H](CC1CCCCC1)NC(=O)[C@H]1CCCN1C(=O)[C@H](CO)NC(=O)[C@H](N)Cc1ccccc1)[C@@H](C)CC)C(=O)NCC(N)=O | > 1000 nM | 63% | 0.13 nM | 80% |  |  |  |  |  |  |  |  |  |  |
| CC[C@H](C)[C@H](NC(=O)[C@H](CCCNC(=N)N)NC(=O)[C@H](CC(=O)O)NC(=O)[C@@H](NC(=O)[C@H](CCCNC(=N)N)NC(=O)CNC(=O)CNC(=O)[C@H](CC1CCCCC1)NC(=O)CNC(=O)[C@H](CO)NC(=O)[C@H](Cc1ccccc1)NC(=O)[C@H](CO)NC(=O)[C@@H](N)CCCNC(=N)N)[C@@H](C)CC)C(=O)NCC(N)=O (H-RSFSG[Cha]GGRIDRIG-NH2) | > 1000 nM | 0% | 0.3 nM | 5% |  |  |  |  |  |  |  |  |  |  |
| CC[C@H](C)[C@H](NC(=O)[C@H](CCCNC(=N)N)NC(=O)[C@H](CC(=O)O)NC(=O)[C@@H](NC(=O)[C@@H]1CCCN1C(=O)CNC(=O)[C@@H](C)NC(=O)[C@H](CC1CCCCC1)NC(=O)[C@H]1CCCN1C(=O)[C@H](CO)NC(=O)[C@@H](Cc1ccccc1)NC(C)=O)[C@@H](C)CC)C(N)=O | > 1000 nM |  | 0.054 nM |  | 81% | 68% |  |  |  |  |  |  |  |  |
| CC[C@H](C)[C@H](NC(=O)[C@H](CCCNC(=N)NC)NC(=O)[C@H](CC(=O)O)NC(=O)[C@@H](NC(=O)[C@@H]1C[C@@H](O)CN1C(=O)CNC(=O)[C@@H](CO)NC(=O)[C@H](CC1CCCCC1)NC(=O)[C@H]1C[C@H](O)CN1C(=O)[C@H](CO)NC(=O)[C@@H](Cc1ccccc1)NC(=O)CO)[C@@H](C)CC)C(=O)NC | > 1000 nM |  | 0.079 nM |  |  |  | Active | 107% | Active | Active | 40.5 nM | 92% | 10.1 nM |  |
| CC[C@H](C)[C@H](NC(=O)[C@H](CCCNC(=N)N)NC(=O)[C@H](CC(=O)O)NC(=O)[C@@H](NC(=O)[C@H](CCCNC(=N)N)NC(=O)CNC(=O)CNC(=O)[C@H](CC1CCCCC1)NC(=O)CNC(=O)[C@H](CO)NC(=O)[C@H](N)Cc1ccccc1)[C@@H](C)CC)C(=O)NCC(N)=O | > 1000 nM | 80% | 0.12 nM | 100% |  |  |  |  |  |  |  |  |  |  |
| CC[C@H](C)[C@H](NC(=O)[C@H](CCCNC(=N)NC)NC(=O)[C@H](CC(=O)O)NC(=O)[C@@H](NC(=O)[C@@H]1CCCN1C(=O)CNC(=O)[C@@H](C)NC(=O)[C@H](CC1CCCCC1)NC(=O)[C@H]1CCCN1C(=O)[C@H](CO)NC(=O)[C@@H](Cc1ccccc1)NC(C)=O)[C@@H](C)CC)C(=O)NC | > 1000 nM |  | 0.14 nM |  | 91% | 84% |  | 77% |  |  | 13.7 nM | 62% |  |  |
| CC[C@H](C)[C@H](NC(=O)[C@H](CCCNC(=N)NC)NC(=O)[C@H](CC(=O)O)NC(=O)[C@@H](NC(=O)[C@@H]1C[C@@H](O)CN1C(=O)CNC(=O)[C@@H](C)NC(=O)[C@H](CC1CCCCC1)NC(=O)[C@H]1C[C@H](O)CN1C(=O)[C@H](CO)NC(=O)[C@@H](Cc1ccccc1)NC(C)=O)[C@@H](C)CC)C(=O)NC | > 1000 nM |  | 0.099 nM |  |  |  |  | 100% |  |  |  | 102% |  | Stable |
| CC[C@H](C)[C@H](NC(=O)[C@H](CCCNC(=N)N)NC(=O)[C@H](CC(=O)O)NC(=O)[C@@H](NC(=O)[C@@H]1CCCN1C(=O)CNC(=O)[C@@H](C)NC(=O)[C@H](CC1CCCCC1)NC(=O)[C@H]1CCCN1C(=O)[C@H](CO)NC(=O)[C@@H](Cc1ccccc1)NC(C)=O)[C@@H](C)CC)C(=O)NC | > 1000 nM |  | 0.087 nM |  | 86% | 74% |  |  |  |  |  |  |  |  |
